From PubChem BioAssay AID330 (DTP/NCI, 2004)
Several values for one entry are separate records, joined by “and”; a condition that tells them apart may be missing. Equal values may be shown once. Toxic doses and inconclusive results are not listed. How the source made its calls: active means survival T/C of 150% or more; inactive means T/C below 125% in these data. Square brackets hold non-standard residues; d marks the D form. Peptide text beside a SMILES is read from it. pGlu = O=C1CC[CH](C(=O)O)N1

System: P388 leukemia ip, CD2F1 mice, survival T/C
Assay: NCI In Vivo Anticancer Drug Screen. Data for tumor model P388 Leukemia (intraperitoneal) in CD2F1 (CDF1) mice
Conditions: endpoint: median survival time, higher = longer survival
Method in brief: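 Mice carrying the transplanted tumor received test compound or vehicle. Survival was recorded in each group, and the value is the treated-group measurement divided by that of the vehicle-treated control group.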

[1] = dose: 100.0 mg/kg/injection, schedule: Q01DX009 (ip), vehicle: saline with Tween-80
[2] = dose: 100.0 mg/kg/injection, schedule: Q04DX003 (ip), vehicle: saline with Tween-80
[3] = dose: 200.0 mg/kg/injection, schedule: Q01DX009 (ip), vehicle: saline with Tween-80
[4] = dose: 200.0 mg/kg/injection, schedule: Q04DX003 (ip), vehicle: saline with Tween-80
[5] = dose: 400.0 mg/kg/injection, schedule: Q04DX003 (ip), vehicle: saline with Tween-80
[6] = dose: 50.0 mg/kg/injection, schedule: Q01DX009 (ip), vehicle: saline
[7] = dose: 100.0 mg/kg/injection, schedule: Q01DX009 (ip), vehicle: saline
[8] = dose: 50.0 mg/kg/injection, schedule: Q01DX009 (ip), vehicle: Klucel (hydroxypropylcellulose) (HPC)
[9] = dose: 100.0 mg/kg/injection, schedule: Q01DX009 (ip), vehicle: Klucel (hydroxypropylcellulose) (HPC)
[10] = dose: 200.0 mg/kg/injection, schedule: Q01DX009 (ip), vehicle: Klucel (hydroxypropylcellulose) (HPC)
[11] = dose: 400.0 mg/kg/injection, schedule: Q01DX009 (ip), vehicle: Klucel (hydroxypropylcellulose) (HPC)
[12] = dose: 50.0 mg/kg/injection, schedule: Q01DX005 (ip), vehicle: saline with Tween-80
[13] = dose: 100.0 mg/kg/injection, schedule: Q01DX005 (ip), vehicle: saline with Tween-80
[14] = dose: 200.0 mg/kg/injection, schedule: Q01DX005 (ip), vehicle: saline with Tween-80
[15] = dose: 25.0 mg/kg/injection, schedule: Q01DX009 (ip), vehicle: saline with Tween-80
[16] = dose: 50.0 mg/kg/injection, schedule: Q01DX009 (ip), vehicle: saline with Tween-80
[17] = dose: 12.5 mg/kg/injection, schedule: Q01DX009 (ip), vehicle: Klucel (hydroxypropylcellulose) (HPC)
[18] = dose: 240.0 mg/kg/injection, schedule: Q01DX005 (ip), vehicle: saline with Tween-80

Measured: T/C

Cc1cccc(-c2cc(Cl)c3cc(S(=O)(=O)F)ccc3n2)c1
inactive: [1] 100 % of control | [2] 100 % of control | [3] 108 % of control | [4] 100 % of control | dose: 400.0 mg/kg/injection, schedule: Q01DX009 (ip), vehicle: saline with Tween-80 100 % of control | [5] 109 % of control

CC(C)(C)C(=O)CC(=O)C(C)(C)C.CC(C)(C)C(=O)CC(=O)C(C)(C)C.[Cu]
inactive: dose: 4.75 mg/kg/injection, schedule: Q01DX009 (ip), vehicle: saline with Tween-80 104 % of control | dose: 9.5 mg/kg/injection, schedule: Q01DX009 (ip), vehicle: saline with Tween-80 95 % of control | dose: 19.0 mg/kg/injection, schedule: Q01DX009 (ip), vehicle: saline with Tween-80 95 % of control

Cc1cc(=O)[nH]c(/N=C(/N)N(C)C)n1
inactive: [6] 101 % of control | [7] 98 % of control | dose: 200.0 mg/kg/injection, schedule: Q01DX009 (ip), vehicle: saline 108 % of control

COC1CC(C)C(OC)C2=CC(=O)C=C(NC(=O)/C(C)=C/C=C\C(C)C(OC(N)=O)/C(C)=C\C(C)C1OC)C2=O (centres undefined)
inactive: dose: 5.0 mg/kg/injection, schedule: Q01DX009 (ip), vehicle: saline + alcohol 121 % of control | dose: 10.0 mg/kg/injection, schedule: Q01DX009 (ip), vehicle: saline + alcohol 123 % of control | dose: 20.0 mg/kg/injection, schedule: Q01DX009 (ip), vehicle: saline + alcohol 86 % of control

CCO/C=N/c1c(C#N)cnn1C
inactive: [8] 100 % of control | [9] 98 % of control | [10] 106 % of control | [11] 103 % of control

COc1ccc(/C=N/NC(=O)COCC(=O)N/N=C/c2ccc(OC)cc2)cc1
inactive: [12] 100 % of control | [13] 88 % of control | [14] 91 % of control

Cc1nc(=O)oc(NC(C)C)c1Cl
inactive: [15] 100 % of control and 107 % of control | [16] 106 % of control and 95 % of control | [6] 110 % of control | [1] 113 % of control and 97 % of control | [7] 103 % of control | [3] 99 % of control and 116 % of control

CSCCC([NH-])C(=O)O.CSCCC([NH-])C(=O)O.[Cu+2] (centres undefined)
inactive: dose: 3.12 mg/kg/injection, schedule: Q01DX009 (ip), vehicle: saline 102 % of control | dose: 6.25 mg/kg/injection, schedule: Q01DX009 (ip), vehicle: Klucel (hydroxypropylcellulose) (HPC) 94 % of control | dose: 6.25 mg/kg/injection, schedule: Q01DX009 (ip), vehicle: saline 94 % of control | [17] 94 % of control | dose: 12.5 mg/kg/injection, schedule: Q01DX009 (ip), vehicle: saline 100 % of control

CCOCC[Si]12OCCN(CCO1)CCO2
inactive: dose: 50.0 mg/kg/injection, schedule: Q01DX005 (ip), vehicle: Klucel (hydroxypropylcellulose) (HPC) 97 % of control | dose: 100.0 mg/kg/injection, schedule: Q01DX005 (ip), vehicle: Klucel (hydroxypropylcellulose) (HPC) 101 % of control | dose: 200.0 mg/kg/injection, schedule: Q01DX005 (ip), vehicle: Klucel (hydroxypropylcellulose) (HPC) 90 % of control

CCOC(=O)CCC(NC(=O)C1CCC(=O)N1)C(=O)OCC (centres undefined) ([pGlu]-Glu(OEt)-OEt; configuration not given here)
inactive: [12] 96 % of control | [13] 91 % of control | [14] 98 % of control

O=C(Nc1cc(Cl)ccc1Cl)Nc1ccc(Cl)cc1C(=O)c1ccccc1
inactive: dose: 15.0 mg/kg/injection, schedule: Q01DX005 (ip), vehicle: saline with Tween-80 89 % of control | dose: 30.0 mg/kg/injection, schedule: Q01DX005 (ip), vehicle: saline with Tween-80 90 % of control | [18] 90 % of control

CCC1C2Cc3ccc(O)cc3C1(C)CCN2 (centres undefined)
inactive: dose: 60.0 mg/kg/injection, schedule: Q01DX005 (ip), vehicle: saline 95 % of control | dose: 120.0 mg/kg/injection, schedule: Q01DX005 (ip), vehicle: saline 98 % of control

CN1CCC2CC1Cc1ccc(NS(C)(=O)=O)cc12 (centres undefined)
inactive: [12] 98 % of control | [13] 100 % of control | [14] 91 % of control

[C-]#[N+]C(C)Cc1ccccc1 (centres undefined)
inactive: dose: 1.56 mg/kg/injection, schedule: Q04DX003 (ip), vehicle: saline 101 % of control | dose: 3.13 mg/kg/injection, schedule: Q04DX003 (ip), vehicle: saline 103 % of control | dose: 6.25 mg/kg/injection, schedule: Q04DX003 (ip), vehicle: saline 103 % of control | dose: 12.5 mg/kg/injection, schedule: Q04DX003 (ip), vehicle: saline 105 % of control | dose: 25.0 mg/kg/injection, schedule: Q04DX003 (ip), vehicle: saline 104 % of control

CCN(CC)Cc1c(C)[nH]c2ccc(NC(C)=O)cc2c1=O
inactive: [16] 116 % of control | [1] 114 % of control

CC(C)C(NC(=O)OC(C)(C)C)C(=O)ON1C(=O)CCC1=O (centres undefined)
inactive: [16] 118 % of control | [1] 111 % of control | [3] 99 % of control

Oc1cc2c(cc1C(Nc1ncccn1)c1ccc3c(c1)OCO3)OCO2 (centres undefined)
inactive: dose: 60.0 mg/kg/injection, schedule: Q01DX005 (ip), vehicle: saline with Tween-80 102 % of control | dose: 120.0 mg/kg/injection, schedule: Q01DX005 (ip), vehicle: saline with Tween-80 100 % of control | [18] 95 % of control

COc1ccc(/C=N/Nc2nnc3c(n2)[nH]c2ccc(Br)cc23)cc1
inactive: dose: 100.0 mg/kg/injection, schedule: Q04DX002 (ip), vehicle: saline with Tween-80 100 % of control | dose: 200.0 mg/kg/injection, schedule: Q04DX002 (ip), vehicle: saline with Tween-80 109 % of control | dose: 400.0 mg/kg/injection, schedule: Q04DX002 (ip), vehicle: saline with Tween-80 110 % of control

COc1ccc(C(=O)CC(C#N)c2ccc(OC)c(OC)c2)cc1OC (centres undefined)
inactive: [2] 90 % of control | [4] 86 % of control | [5] 86 % of control

CC12C(=O)OC(=O)C1(C)C1CCC2O1 (centres undefined)
inactive: dose: 0.93 mg/kg/injection, schedule: Q01DX005 (ip), vehicle: saline with Tween-80 109 % of control | dose: 1.87 mg/kg/injection, schedule: Q01DX005 (ip), vehicle: saline with Tween-80 102 % of control

COc1ccc(-c2coc3cc(O)cc(O)c3c2=O)cc1
inactive: [15] 94 % of control | [8] 110 % of control | [16] 97 % of control | [9] 107 % of control | [1] 93 % of control | [10] 104 % of control | [11] 96 % of control

BrC=C1c2ccccc2-c2ccccc21
inactive: dose: 100.0 mg/kg/injection, schedule: Q04DX003 (ip), vehicle: Klucel (hydroxypropylcellulose) (HPC) 100 % of control | dose: 200.0 mg/kg/injection, schedule: Q04DX003 (ip), vehicle: Klucel (hydroxypropylcellulose) (HPC) 91 % of control | dose: 400.0 mg/kg/injection, schedule: Q04DX003 (ip), vehicle: Klucel (hydroxypropylcellulose) (HPC) 102 % of control

CCCCCCCC/C=C\CCCCCCCCN1CC(C(=O)[O][Pb]([CH2]C)([CH2]C)[CH2]C)CC1=O (centres undefined)
inactive: dose: 0.75 mg/kg/injection, schedule: Q01DX009 (ip), vehicle: saline with Tween-80 105 % of control | dose: 1.5 mg/kg/injection, schedule: Q01DX009 (ip), vehicle: saline with Tween-80 105 % of control | dose: 6.0 mg/kg/injection, schedule: Q01DX009 (ip), vehicle: saline with Tween-80 115 % of control

CCCCCC(=O)OCCN1CCN(CCCN2c3ccccc3Sc3ccc(C(F)(F)F)cc32)CC1
inactive: [17] 113 % of control | dose: 25.0 mg/kg/injection, schedule: Q01DX009 (ip), vehicle: Klucel (hydroxypropylcellulose) (HPC) 101 % of control

CCCC(=O)NNC(=O)c1ccccn1
inactive: dose: 25.0 mg/kg/injection, schedule: Q01DX009 (ip), vehicle: saline sonified 90 % of control | dose: 50.0 mg/kg/injection, schedule: Q01DX009 (ip), vehicle: saline sonified 95 % of control | dose: 100.0 mg/kg/injection, schedule: Q01DX009 (ip), vehicle: saline sonified 100 % of control

OCC1OC(n2ccc3c(Cl)ncnc32)C(O)C1O (centres undefined)
inactive: dose: 6.25 mg/kg/injection, schedule: Q01DX005 (ip), vehicle: suspension in saline 110 % of control | dose: 12.5 mg/kg/injection, schedule: Q01DX005 (ip), vehicle: suspension in saline 117 % of control | dose: 25.0 mg/kg/injection, schedule: Q01DX005 (ip), vehicle: suspension in saline 96 % of control
